Measured values as given in publication PMC10307035, “Antiviral activity of singlet oxygen-photogenerating perylene compounds against SARS-CoV-2: Interaction with the viral envelope and photodynamic virion inactivation” (Virus Research, 2023).

What was measured:
[1] = ROS generation rate / quantum yield, DPBF bleaching in methanol; assay type: physicochemical; conditions: for φROS (ROS generation quantum yield): in methanol, DPBF trap, 450–470 nm illumination, riboflavin as reference
Source text: The ROS generation rate was estimated using the spectrophotometric method, based on the absorption changes of 1,3-diphenylisobenzofuran (DPBF, Sigma Aldrich, Germany) in methanol solution. Irreversible oxidation of DPBF by singlet oxygen results in peroxide formation, and DPBF bleaching. When light of 400–450 nm was used as actinic, DPBF bleaching occurred without any photosensitizer (PS) in solution. Therefore, to study photosensitized ROS generation, we used a white MCWHLP1 LED (Thorlabs, USA) with filters to limit the radiation to the 450–470 nm range (5.5 mW/cm^2).
Spectrophotometric measurements were performed in a Qpod 2e (Quantum Northwest, USA) thermostated cuvette holder at 25 °C with magnetic stirring (500 rpm). Absorption spectra were recorded using a MayaPro spectrophotometer (Ocean Optics, USA) and a stabilized white light source with a SLS201L tungsten lamp (Thorlabs, USA). Illumination was uniform over the entire volume of the cuvette, to prevent artifacts associated with the diffusion of non-reacted components into the illuminated volume of the cuvette. In this case, the rate of irreversible bleaching of DPBF (412 nm) was the same under both continuous and pulsed irradiation with equal total irradiation time. Illumination was performed in a pulsed mode (Fig. S5A), with 1 s of illumination followed by 5 s of dark adaptation, during which the absorption spectrum of the PS-DPBF solution was recorded. Data processing was performed as previously described ([Gvozdev et al., 2020]).

Vero cells [2] = test: Cytotoxicity assay (Cell Counting Kit-8) in Vero cells; assay type: cell-based, African Green Monkey; conditions: 10 µM, 48 h
Description: (§1) To determine the overall cytotoxicity of the tested compounds, Vero cells were cultured for 24 h in 96-well plates to form a confluent monolayer, and then were treated with the tested compounds at concentrations of 2 and 10 µM. After 48 h of cultivation in the dark at 37 °C under 5% CO2, the cell culture medium was aspirated. The potential cytotoxicity of the tested perylene derivatives was determined based on cell viability using Cell Counting Kit-8 (Dojindo Molecular Technologies, Munich, Germany) according to the manufacturer's instructions. The cell viabilities of compound-treated Vero cells were compared with those of control DMSO-treated cells. We also used the above-described protocol to assess the cytotoxicity of the selected perylene antivirals, at concentrations ranging from 0 to 10 µM, in CaCo-2 and CRFK cells.

[3] = Spectrofluorometric analysis of interaction with liposomes; assay type: physicochemical
[4] = ROS generation measurement with DMA trap in DMSO; assay type: physicochemical; conditions: for ROS generation, DMA trap, under blue light: 465–480 nm, 30 mW/cm^2, 10 min
Description: ROS generation was also estimated using 9,10-dimethylanthracene (DMA), another specific fluorescent singlet oxygen trap, which forms nonfluorescent 9,10-dimethylanthracene endoperoxide after ROS-mediated DMA oxidation. Compounds (0, 0.1, 1, and 10 µM) in DMSO were mixed with DMA (0.5 µM), and these solutions were irradiated for 10 min at room temperature (RT) with light-emitting diodes (LED, 465–480 nm) having approximate power density of 30 mW/cm^2 (device description in Fig. S7). DMA fluorescence intensity was measured at ex/em wavelengths of 370/432 nm in the presence or absence of α-tocopherol (3 µg/mL) as an antioxidant. Singlet oxygen generation was accompanied by a decreased fluorescence signal of the DMA probe ([Zeng et al., 2020]).

SARS-CoV-2 = test: Photodynamic inactivation of SARS-CoV-2 virions; assay type: cell-based; conditions: for antiviral activity after blue light irradiation of virus-compound mixture: 465–480 nm, 30 mW/cm^2, 10 min, then 60 min at 37 °C in the dark, plaque assay
Description: Virus in DMEM (titer of 10^5 PFU/mL) was mixed with the compounds (0–10 µM) in a microtiter plate, in triplicate, and irradiated for 10 min at RT with LEDs (465–480 nm) having an approximate power density of 30 mW/cm^2 (device description in supplement). As a negative control, virus was incubated for 10 min in the dark at RT. Subsequently, both irradiated and non-irradiated virus samples were incubated in the dark at 37 °C for 60 min. All manipulation with the samples before and after this incubation, i.e., mixing the compound with the virus, pipetting into a microtiter plate, etc., were performed in daylight. Viral titers were determined by plaque assays (performed also in daylight) and expressed as PFU/mL, as previously described ([Stefanik et al., 2021]). To eliminate the influence of daylight on compound activity, the whole experiment, including all manipulation with samples, was performed in a dark room under red light. The virus sample was mixed with the indicated compounds at concentrations from 0 to 10 μM or 100 μM, incubated for 60 min at 37 °C and virus viability was evaluated using a plaque assay (Fig. 9A).

Vero cells [5] = test: Light-induced cytotoxicity in Vero cells; assay type: cell-based, African Green Monkey; conditions: 0–10 µM, 465–480 nm 10 min, then 24 h in the dark
Description: To determine the light-induced cytotoxicity of the tested compounds, Vero cells were cultured for 24 h in 96-well plates to form a confluent monolayer, and then were treated with the tested compounds at concentrations of 0 to 10 µM. Then, the compound-treated cells were irradiated for 10 min at RT with LEDs (465–480 nm) having an approximate power density of 30 mW/cm^2 (device description in Fig. S7). As a negative control, compound-treated cells were incubated for 10 min in the dark at RT. Subsequently, both irradiated and non-irradiated cell monolayers were incubated in the dark at 37 °C for 24 h. Then, the cell culture medium was aspirated and the potential cytotoxicity of the tested perylene derivatives was determined based on cell viability using Cell Counting Kit-8 (Dojindo Molecular Technologies, Munich, Germany) according to the manufacturer's instructions.

CaCo-2 cells [6] = test: Cellular stress marker expression by RT-qPCR in CaCo-2 cells; assay type: cell-based, human
Description: RT-qPCR was performed to evaluate changes in the gene expression of cellular stress markers. […] Previous publications report the primer sequences and numbers of the Universal Probe Library (UPL; Roche Life Sciences, Germany) used for detection of ATF3, CDKN1A (p21), CYP1A1, DDIT3, HMOX1, HSPA1B (HSP70), and HSPA5 mRNAs ([Procházková et al., 2018]; [Šimečková et al., 2020]). […] TaqMan™ Gene Expression Assays (Thermo Fisher Scientific, Waltham, MA, USA) were used to determine the levels of FGF21 (Hs00173927_m1), GADD45A (Hs00169255_m1), GDF15 (Hs00171132_m1), and SRXN1 (Hs00607800_m1). The amplification was run in a 10-µL reaction mixture containing 1 µL of sample, using Kapa Probe Fast One-Step (Kapa Biosystems Pty, Cape Town, South Africa) on a LightCycler® 480 System (Roche Diagnostics, Czech Republic) using the previously published sequence ([Procházková et al., 2018]). Reference gene qPCR assays (Generi Biotech, Hradec Králové, Czech Republic) were used for the following housekeeping genes: human β2-Microglobulin (B2M; #3030), hydroxymethylbilane synthase (HMBS; #3032), and RNA polymerase II subunit A (POLR2A; #3035). We used an average of three reference gene Cp values to calculate the change in gene expression using the comparative threshold cycle method ([Schmittgen and Livak, 2008]).

CaCo-2 cells [7] = test: Cytotoxicity assay (Cell Counting Kit-8) in CaCo-2 cells; assay type: cell-based, human; conditions: up to 10 µM
Description: as §1

CRFK cells = test: Cytotoxicity assay (Cell Counting Kit-8) in CRFK cells; assay type: cell-based, Felis catus; conditions: up to 10 µM
Description: as §1

[8] = system: SARS-CoV-2 (Wuhan strain); test: Viral titer inhibition assay, SARS-CoV-2 in CaCo-2 cells; assay type: cell-based; conditions: 0–10 µM
[9] = system: feline infectious peritonitis virus (FIPV); assay type: cell-based, feline coronavirus (FCoV); conditions: 0–10 µM

| Compound | φROS (ROS generation quantum yield) [1] | cell viability (in words) (Vero cells [2]) | further results |
| --- | --- | --- | --- |
| O=c1[nH]c(=O)n([C@@H]2O[C@H](CO)[C@@H](O)[C@@H]2O)cc1C#Cc1ccc2c3cccc4cccc(c5cccc1c52)c43 [Compound 1, 5-(perylen-3-yl)ethynyl-arabino-uridine] | 22.8 ± 0.4% |  |  |
| O=C(O)c1ccc2c3cccc4cccc(c5cccc1c52)c43 [Compound 20] |  | moderately decreased cell viability | photodynamic activity (DPBF trap, in words) ([1]; methanol, 450–470 nm): minimal; solubility in water (in words) [3]: good solubility in water; penetration into liposomal membranes (in words) ([3]; 10 µM in PBS, EPC/Chol 70/30 mol% liposomes): no fluorescence enhancement; ROS generation, DMA trap, under blue light [4]: minimal photodynamic activities |
| O=C(c1ccc(-c2ccc3c4cccc5cccc(c6cccc2c63)c54)s1)N(CCO)CCO [Compound 18] | 60.0 ± 2.4% |  |  |
| CCCCNC(=O)Cn1cc(C#Cc2ccc3c4cccc5cccc(c6cccc2c63)c54)c(=O)n(COC(=O)C(C)(C)C)c1=O [Compound 8] | 17.6 ± 0.4% | moderately decreased cell viability | antiviral activity after blue light irradiation of virus-compound mixture (SARS-CoV-2): significant increase of antiviral activity; effect of blue light irradiation on cytotoxicity (Vero cells [5]): no effect |
| CCCCNC(=O)c1ccc(-c2ccc3c4cccc5cccc(c6cccc2c63)c54)s1 [Compound 19] | 59.1 ± 1.2% | moderately decreased cell viability |  |
| CC(=O)Nc1ccc(C#Cc2ccc3c4cccc5cccc(c6cccc2c63)c54)cc1 [Compound 15] | 23.1 ± 0.4% |  |  |
| CC(C)(C)C(=O)OCn1c(=O)c(C#Cc2ccc3c4cccc5cccc(c6cccc2c63)c54)cn(CC(=O)NCCCCO)c1=O [Compound 6] | 18.2 ± 0.2% |  |  |
| CC(C)(C)C(=O)OCn1c(=O)c(C#Cc2ccc3c4cccc5cccc(c6cccc2c63)c54)cn(CC(=O)NC[C@@H](O)C(C)(C)CO)c1=O [Compound 7] | 17.3 ± 0.2% |  |  |
| Cn1cc(C#Cc2ccc3c4cccc5cccc(c6cccc2c63)c54)c(=O)n(C)c1=O [Compound 4] | 22.8 ± 0.4% | moderately decreased cell viability |  |
| O=c1[nH]cc(C#Cc2ccc3c4cccc5cccc(c6cccc2c63)c54)c(=O)[nH]1 [Compound 3] | 12.7 ± 1.2% |  |  |
| Clc1cc2c(cc1Cl)Oc1cc(Cl)c(Cl)cc1O2 [TCDD, reference compound] |  |  | increase of CYP1A1 mRNA level (CaCo-2 cells [6]; CaCo-2 cells, 10 nM): up to 50 fold |
| CC(C)(C)C(=O)OCn1c(=O)c(C#Cc2ccc3c4cccc5cccc(c6cccc2c63)c54)cn(CC(=O)O)c1=O [Compound 5] | 20.5 ± 0.2% | moderately decreased cell viability |  |
| O=C(NCCCCO)c1ccc(-c2ccc3c4cccc5cccc(c6cccc2c63)c54)s1 [Compound 17] | 59.0 ± 2.4% |  | tolerability by CaCo-2 cells (CaCo-2 cells [7]): well-tolerated; tolerability by CRFK cells (CRFK cells): well-tolerated; anti-SARS-CoV-2 activity in CaCo-2 cells [8]: sub-micromolar; replication of FIPV in CRFK cells [9]: potently suppressed the replication; ROS generation, DMA trap, under blue light [4]: significant bleaching; ROS generation, DMA trap, in the dark or with α-tocopherol ([4]; 10 min, dark or α-tocopherol (3 µg/mL)): no/limited bleaching; antiviral effect under red light only (SARS-CoV-2; 100 µM, dark room, red light, 60 min at 37 °C): no antiviral effect; antiviral activity after blue light irradiation of virus-compound mixture (SARS-CoV-2): low-nanomolar; antiviral activity under red light only (SARS-CoV-2; up to 10 µM, dark room, red light, 60 min at 37 °C): completely disappeared; effect of blue light irradiation on cytotoxicity (Vero cells [5]): dramatically increased |
| CC(C)(C)C(=O)OCn1c(=O)c(C#Cc2ccc3c4cccc5cccc(c6cccc2c63)c54)cn(CC(=O)NCCCCCO)c1=O [Compound 11] | 17.2 ± 0.4% |  |  |
| CC(C)(C)C(=O)OCn1c(=O)c(C#Cc2ccc3c4cccc5cccc(c6cccc2c63)c54)cn(CC(=O)NCCCO)c1=O [Compound 10] | 16.5 ± 0.2% |  |  |
| CC(C)(C)C(=O)OCn1c(=O)c(C#Cc2ccc3c4cccc5cccc(c6cccc2c63)c54)cn(CC(=O)NCCO)c1=O [Compound 9] | 17.3 ± 0.2% |  |  |
| C/C=C(/C)C(=O)O[C@H]1C(C)=C2[C@H]([C@@H]1OC(=O)CCCCCCC)[C@@](C)(OC(C)=O)C[C@H](OC(=O)CCC)[C@@]1(O)[C@H]2OC(=O)[C@@]1(C)O [thapsigargin, reference compound] |  |  | expression of HSPA5, DDIT3, HSPA1B (HSP70), CDKN1A (p21), GADD45A (CaCo-2 cells [6]; CaCo-2 cells, 5, 24 and 48 h): increased |
| CC(C)(C)C(=O)OCn1c(=O)c(C#Cc2ccc3c4cccc5cccc(c6cccc2c63)c54)cn(CC(=O)NCCCCCCO)c1=O [Compound 12] | 18.1 ± 0.4% | moderately decreased cell viability |  |
